Each structure is given as a SMILES string. Converted amounts (≈) assume the structure as drawn.

What is called MIC is the lowest concentration found to suppress growth.

The assay has as its system Staphylococcus aureus ATCC29213. Kind of assay: Broth microdilution susceptibility testing (MIC determination). Type of assay: cell-based. Conditions: Mueller Hinton broth, overnight incubation at 35° C., lowest concentration preventing visible growth, read-out: MIC Staph. aureus ATCC29213. The procedure: Susceptibility testing (MIC determinations) was performed using the standard broth microdilution methodology precisely as described in the Clinical Laboratory Standards Institute Document M7-A6; Methods for Dilution Antimicrobial Susceptibility Tests for Bacteria That Grow Aerobically; Approved Standard- Sixth Edition (ISBN 1-56238-486-4), CLSI, 940 West Valley Road, Suite 1400, Wayne, Pa. 19087-1898 USA. To perform the test, a series of 0.1 ml media in a 96-well plate is prepared with Mueller Hinton broth to which various concentrations of the test compound are added. The media are then inoculated with a standardized suspension of the test organism, Staphylococcus aureus ATCC29213. After overnight incubation at 35° C., the tests are examined and the minimal inhibitory concentration (MIC) is determined. MIC is defined as the lowest concentration of an antimicrobial agent that prevents visible growth of a microorganism in the broth microdilution susceptibility test
A general note: Dilution methods test growth across graded concentrations, often in twofold steps.
For the molecule `Cc1cccc(N2CCN(C(=O)CNc3c(-c4ccc(OC(F)(F)F)cc4)nc4cnccn34)CC2)c1C` [compound 276], the MIC was 10 µg/mL (≈ 19.1 µM).
Consider `O=C(CNc1c(-c2ccc(OC(F)(F)F)cc2)nc2cnccn12)N1CCN(CCC2CCCCC2)CC1` [compound 277], for which the minimal inhibitory concentration (MIC) was 2.5 µg/mL (≈ 4.71 µM).
`COCCCN1CCN(C(=O)CNc2c(-c3ccc(OC(F)(F)F)cc3)nc3cnccn23)CC1` [compound 281]: the MIC stood at 5 µg/mL (≈ 10.2 µM).
In the case of `O=C(CNc1c(-c2ccc(OC(F)(F)F)cc2)nc2cnccn12)N1CCN(C(=O)OCc2ccccc2)CC1` [compound 275] it was 10 µg/mL (≈ 18 µM); in that of `Cc1cccc(N2CCN(C(=O)C(C)Nc3c(-c4ccc(OC(F)(F)F)cc4)nc4cnccn34)CC2C)c1` (centres unmarked) [compound 318], 10 µg/mL (≈ 18.6 µM).
To `CC(=O)N1CCN(C(=O)C(C)Nc2c(-c3ccc(N(C)C)cc3)nc3cnccn23)CC1` (centres unmarked) [compound 102] belongs 1.25 µg/mL (≈ 2.87 µM).
`C=CCN1CCN(C(=O)C(C)Nc2c(-c3ccc(OC(F)(F)F)cc3)nc3cnccn23)CC1` (centres unmarked) [compound 189]: the MIC turned out to be 5 µg/mL (≈ 10.5 µM).
In the case of `CC(c1ccccc1)N1CCN(C(=O)CNc2c(-c3ccc(OC(F)(F)F)cc3)nc3cnccn23)CC1` (centres unmarked) [compound 295] it was 10 µg/mL (≈ 19.1 µM); in that of `O=C(CNc1c(-c2ccc(OC(F)(F)F)cc2)nc2cnccn12)N1CCN(c2nc(-c3ccccc3)ns2)CC1` [compound 282], 5 µg/mL (≈ 8.61 µM); in that of `O=C(CNc1c(-c2ccc(OC(F)(F)F)cc2)nc2cnccn12)N1CCN(c2c(Cl)cncc2Cl)CC1` [compound 274], 0.08 µg/mL (≈ 0.141 µM).
`O=C(CNc1c(-c2ccc(OC(F)(F)F)cc2)nc2cnccn12)N1CCN(c2ccncc2)CC1` [compound 269]: the MIC is 1.25 µg/mL (≈ 2.51 µM).
With `O=C(CNc1c(-c2ccc(OC(F)(F)F)cc2)nc2cnccn12)N1CCN(c2ccccc2Cl)CC1` [compound 270], the MIC was 10 µg/mL (≈ 18.8 µM).
Turning to `Cc1cccc(C)c1N1CCN(C(=O)CNc2c(-c3ccc(N(C)C)cc3)nc3cnccn23)CC1` [compound 26], the MIC came out at 2 µg/mL (≈ 4.14 µM).
To `CN1CCN(C(=O)CNc2c(-c3ccc(OC(F)(F)F)cc3)nc3cnccn23)CC1` [compound 268] belongs 10 µg/mL (≈ 23 µM); to `CC(Nc1c(-c2ccc(OC(F)(F)F)cc2)nc2cnccn12)C(=O)N1CCN(C)CC1` (centres unmarked) [compound 184], 5 µg/mL (≈ 11.1 µM).
Consider `CN(C)c1ccc(-c2nc3cnccn3c2NCC(=O)N2CCN(c3c(Cl)cncc3Cl)CC2)cc1` [compound 31], for which the MIC was determined as 0.08 µg/mL (≈ 0.152 µM).
Consider `COc1cc(OC)nc(CN2CCN(C(=O)CNc3c(-c4ccc(OC(F)(F)F)cc4)nc4cnccn34)CC2)n1` [compound 280], for which the MIC came out at 10 µg/mL (≈ 17.5 µM).

Source of the values: patent publication US20130131073A1, “FUSED-IMIDAZOYL COMPOUNDS USEFUL AS ANTIMICROBIAL AGENTS” (priority 2010, published 2013).
